Assay results published in patent US4393225A, “AI-77 Compounds and pharmaceutically acceptable salts thereof” (Asahi Kasei Kogyo Kabushiki Kaisha, priority 1979, dated 1983).

Tests used:
[1] = Solubility of compounds A to G; format: physicochemical; conditions: in water and organic solvents
ulcer = experiment: Anti-ulcer test (restraint and water immersion ulcer in rats, i.p.); format: in vivo, Male Wistar rats; conditions: Rattus norvegicus, ip, read-out: % Inhibition of Ulcer; for inhibition in vivo at 50 mg/kg: 50 mg/kg i.p.
How it was run: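 Compound given intraperitoneally in saline to 24 h-fasted male Wistar rats about 150 g, followed after one hour by 6 h restraint with water immersion at 21 °C. Gastric lesions graded 0, 0.5, 1, 2 or 3 on microscopic inspection and converted to percent ulcer inhibition.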

[2] = Stability (heat, alkali, aqueous solution) of compounds A to G; format: physicochemical
edema = experiment: Anti-edema test (carrageenan hindfoot edema in rats, p.o.); format: in vivo, Male Wistar rats; conditions: Rattus norvegicus, po; 100 mg/kg p.o. (after 3 hours)
Protocol: Tables 13, 14 and 15 show the effect of these compounds to inhibit the occurrence of ulcer and edema. The anti-ulcer and anti-edema activity of the compounds was evaluated in efficacy tests described below. The first two symbols that appear in each of the compound names in Tables 13 and 15 represent the compounds synthesized in the methods (1) through (29); for example, IIIa-1 of a compound IIIa-1-1 represent the compound (IIIa-1).
Male Wistar rats weighing about 150 g on average were starved overnight prior to the test. They were than orally administered 100 mg/kg of the test compound. One hour later, the pad of a hindfoot of the animal was injected with 1 mg of carrageenan. The volume of the foot was measured both before the injection of carrageenan and three hours after the injection. The percent edema inhibition of the test compound was calculated from the ratio of the increase in the volume of the affected foot of the test animals to the increase in the volume of the affected foot of the controls.

Compound | inhibition in vivo at 50 mg/kg (ulcer) [%] | inhibition in vivo at 100 mg/kg (edema) [%] | also measured
CC(C)CC(NC(=N)C(O)C(O)C(N)CC(=O)O)C1Cc2cccc(O)c2C(=O)O1 (stereo not drawn) [A] | 100 | – | solubility [1]: freely soluble in water, methanol, dimethylformamide, and dimethyl sulfoxide, sparingly soluble in a lower alcohol of C2 to C3 and dioxane, and substantially insoluble in ethyl acetate, chloroform, ether, hexane and benzene; stability to heat and/or alkali [2]: very labile to heat and alkali
CCCCNC1CC(=O)OC1C(O)C(=O)NC(CC(C)C)C1Cc2cccc(OCC)c2C(=O)O1 (stereo not drawn) [IIIa-22-75] | 100 | 48 | –
CCCCCCNC1CC(=O)OC1C(O)C(=O)NC(CC(C)C)C1Cc2cccc(O)c2C(=O)O1 (stereo not drawn) [IIIa-18-7] | 100 | 51 | –
CCCCCCCCCCCCNC1CC(=O)OC1C(O)C(=O)NC(CC(C)C)C1Cc2cccc(O)c2C(=O)O1 (stereo not drawn) [IIIa-18-10] | 94 | 43 | –
CCCCCCCNC1CC(=O)OC1C(O)C(=O)NC(CC(C)C)C1Cc2cccc(O)c2C(=O)O1 (stereo not drawn) [IIIa-18-8] | 94 | 50 | –
CC(C)CC(NC(=O)C(O)C(O)C(N)CC(=O)O)C1Cc2cccc(O)c2C(=O)O1 (stereo not drawn) [B] | 100 | – | solubility [1]: freely soluble in water, methanol, dimethylformamide and dimethyl sulfoxide, sparingly soluble in other lower alcohols, dioxane and tetrahydrofuran, and substantially insoluble in ethyl acetate, chloroform, ether, hexane and benzene; stability to heat and/or alkali [2]: labile to alkali in which the hydrolysis of lactone proceeds gradually even at room temperature
CC(C)CC(NC(=O)C(O)C(O)C(N)CC(=O)O)C(O)Cc1cccc(O)c1C(=O)O (stereo not drawn) [G] | 33 | – | solubility [1]: freely soluble in water and slightly soluble in organic solvents; stability in aqueous solution ([2]; aqueous solution): relatively stable in aqueous solution
CCCNC1CC(=O)OC1C(O)C(=O)NC(CC(C)C)C1Cc2cccc(O)c2C(=O)O1 (stereo not drawn) [IIIa-18-2] | 100 | 38 | –
CC(C)CCNC1CC(=O)OC1C(O)C(=O)NC(CC(C)C)C1Cc2cccc(O)c2C(=O)O1 (stereo not drawn) [IIIa-18-5] | 100 | 47 | –
CC(C)CNC1CC(=O)OC1C(O)C(=O)NC(CC(C)C)C1Cc2cccc(O)c2C(=O)O1 (stereo not drawn) [IIIa-18-4] | 94 | 47 | –
CCCCCCCCNC1CC(=O)OC1C(O)C(=O)NC(CC(C)C)C1Cc2cccc(O)c2C(=O)O1 (stereo not drawn) [IIIa-18-9] | 94 | 43 | –
CCCCCNC1CC(=O)OC1C(O)C(=O)NC(CC(C)C)C1Cc2cccc(O)c2C(=O)O1 (stereo not drawn) [IIIa-18-6] | 94 | 50 | –
CCCCOc1cccc2c1C(=O)OC(C(CC(C)C)NC(=O)C(O)C1OC(=O)CC1NCC)C2 (stereo not drawn) [IIIa-22-3] | 94 | 38 | –
CCNC1CC(=O)OC1C(O)C(=O)NC(CC(C)C)C1Cc2cccc(O)c2C(=O)O1 (stereo not drawn) [IIIa-18-1] | 100 | 38 | –
CNC1CC(=O)OC1C(O)C(=O)NC(CC(C)C)C1Cc2cccc(O)c2C(=O)O1 (stereo not drawn) [IIIa-27-1] | 100 | 38 | –
CCNC1CC(=O)OC1C(O)C(=O)NC(CC(C)C)C1Cc2cccc(OCC)c2C(=O)O1 (stereo not drawn) [IIIa-22-1] | 94 | 37 | –
CCCCCCCCCCCCCCCCCCNC1CC(=O)OC1C(O)C(=O)NC(CC(C)C)C1Cc2cccc(O)c2C(=O)O1 (stereo not drawn) [IIIa-18-11] | 83 | 35 | –
CCNC1CC(=O)OC1C(O)C(=O)NC(CC(C)C)C1Cc2cccc(OC)c2C(=O)O1 (stereo not drawn) [IIIa-22-5] | 94 | 37 | –

Compound | inhibition in vivo at 50 mg/kg (ulcer) [%] | inhibition in vivo at 100 mg/kg (edema) [%] | also measured
CC(C)CC(NC(=O)C(O)C1C=CC(=O)O1)C1Cc2cccc(O)c2C(=O)O1 (stereo not drawn) [F] | 44 | – | solubility [1]: freely soluble in ethyl acetate, chloroform, dimethylformamide and dimethyl sulfoxide, sparingly soluble in lower alcohols and dioxane, and substantially insoluble in water, hexane and benzene; stability to heat and/or alkali [2]: as labile to alkali as AI-77-B
CCC(=O)NC1CC(=O)OC1C(O)C(=O)NC(CC(C)C)C1Cc2cccc(O)c2C(=O)O1 (stereo not drawn) [D] | 66 | – | solubility [1]: soluble in lower alcohol, dimethylformamide, dimethyl sulfoxide, dioxane, chloroform, and ethyl acetate, and substantially insoluble in water, ether, hexane and benzene; stability to heat and/or alkali [2]: as labile to alkali as AI-77-B
CCOc1cccc2c1C(=O)OC(C(CC(C)C)NC(=O)C(O)C1OC(=O)CC1NCCC(C)C)C2 (stereo not drawn) [IIIa-22-2] | 94 | 35 | –
CC(=O)NC1CC(=O)OC1C(O)C(=O)NC(CC(C)C)C1Cc2cccc(O)c2C(=O)O1 (stereo not drawn) [C] | 66 | – | solubility [1]: freely soluble in lower alcohols, dimethylformamide, dimethyl sulfoxide and dioxane, sparingly soluble in chloroform and ethyl acetate, and substanitally insoluble in water, ether, hexane and benzene; stability to heat and/or alkali [2]: as labile to alkali is AI-77-B
CCCCNC1CC(=O)OC1C(O)C(=O)NC(CC(C)C)C1Cc2cccc(O)c2C(=O)O1 (stereo not drawn) [IIIa-18-3] | 100 | 42 | –
CCCCNC1CC(=O)OC1C(O)C(=O)NC(CC(C)C)C1Cc2cccc(OC)c2C(=O)O1 (stereo not drawn) [IIIa-22-74] | 100 | 45 | –
CCOc1cccc2c1C(=O)OC(C(CC(C)C)NC(=O)C(OCC)C1OC(=O)CC1NC(C)=O)C2 (stereo not drawn) [IIIa-7-2] | 33 | – | –
CC(C)CC(NC(=O)C(OC(=O)C(Cl)(Cl)Cl)C1C=CC(=O)O1)C1Cc2cccc(O)c2C(=O)O1 (stereo not drawn) [IVa-1-12] | 44 | – | –
CCCCCCCCC=CCCCCCCCCOc1cccc2c1C(=O)OC(C(CC(C)C)NC(=O)C(O)C1C=CC(=O)O1)C2 (stereo not drawn) [IVa-4-7] | 33 | – | –
COC(C)CC(=O)NC1CC(=O)OC1C(O)C(=O)NC(CC(C)C)C1Cc2cccc(OC(C)=O)c2C(=O)O1 (stereo not drawn) [IIIa-4-6] | 44 | – | –
CC(C)CC(NC(=O)C(O)C1C=CC(=O)O1)C1Cc2cccc(OCc3ccccc3)c2C(=O)O1 (stereo not drawn) [IVa-4-9] | 33 | – | –
C#CC(=O)NC1CC(=O)OC1C(O)C(=O)NC(CC(C)C)C1Cc2cccc(OCC)c2C(=O)O1 (stereo not drawn) [IIIa-5-51] | 44 | – | –
C#CCNC1CC(=O)OC1C(O)C(=O)NC(CC(C)C)C1Cc2cccc(OCC)c2C(=O)O1 (stereo not drawn) [IIIa-22-47] | 94 | – | –
CCOc1cccc2c1C(=O)OC(C(CC(C)C)NC(=O)C(O)C1OC(=O)CC1NC(=O)c1ccc(C(C)C)cc1)C2 (stereo not drawn) [IIIa-5-67] | 44 | – | –
CC(=O)NC1CC(=O)OC1C(OC(C)=O)C(=O)NC(CC(C)C)C1Cc2cccc(OC(C)=O)c2C(=O)O1 (stereo not drawn) [IIIa-3-1] | 33 | – | –
CC(C)CC(NC(=O)C(O)C1OC(=O)CC1N)C1Cc2cccc(OCc3ccc4ccccc4c3)c2C(=O)O1 (stereo not drawn) [IIIa-13-17] | 72 | – | –
CC(C)CC(NC(=O)C(O)C(O)C(N)CC(=O)NC(C)C)C1Cc2cccc(O)c2C(=O)O1 (stereo not drawn) [VII-1-42] | – | – | inhibition in vivo at 25 mg/kg (ulcer; 25 mg/kg i.p.): 94%
CC(C)CC(NC(=O)C(O)C(O)C=CC(=O)NCC1CCCCC1)C1Cc2cccc(O)c2C(=O)O1 (stereo not drawn) [VIII-1-5] | 44 | – | –
